The record followed here is BindingDB's records for doi:10.1021/np8001628 (University of Utah, 2008).

This assay addresses Transcription factor p65 (Human, UniProt Q04206). Briefly: Inhibition of IL1-induced NF-kappaB P65 activation in human osteoarthritic primary chondrocytes preincubated 2 hrs before addition of IL1 by ELISA.

Each structure is given as a SMILES string. Where a name gives a salt, the structure may show the parent alone.

Transcription factor p65, sequence (Q04206 whole entry): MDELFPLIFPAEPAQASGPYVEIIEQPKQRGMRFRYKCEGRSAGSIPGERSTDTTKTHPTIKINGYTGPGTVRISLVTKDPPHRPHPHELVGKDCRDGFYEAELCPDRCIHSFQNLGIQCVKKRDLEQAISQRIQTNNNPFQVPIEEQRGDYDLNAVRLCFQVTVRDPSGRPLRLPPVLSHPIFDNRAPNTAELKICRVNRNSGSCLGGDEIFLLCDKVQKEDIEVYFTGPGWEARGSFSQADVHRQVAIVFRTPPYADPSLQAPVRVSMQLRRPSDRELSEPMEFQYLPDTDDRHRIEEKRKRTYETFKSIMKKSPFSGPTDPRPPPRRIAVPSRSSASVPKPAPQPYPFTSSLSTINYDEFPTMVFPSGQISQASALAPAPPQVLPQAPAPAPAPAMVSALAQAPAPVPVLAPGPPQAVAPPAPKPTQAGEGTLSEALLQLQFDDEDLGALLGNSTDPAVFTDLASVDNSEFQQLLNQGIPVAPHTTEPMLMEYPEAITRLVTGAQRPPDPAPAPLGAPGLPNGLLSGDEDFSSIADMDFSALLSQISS

The term EC50 denotes the concentration needed to bring the measured effect to its halfway point. In turn, `CC(C)C1(CC[C@@H](C)[C@H]2CC[C@@]3(C)[C@@H]4C[C@H](OS(=O)(=O)O)[C@H]5[C@@H](O)[C@H](OS(=O)(=O)O)[C@@H](OS(=O)(=O)O)C[C@]5(C)C4=CC[C@]23C)CC1C` (some centres undefined) [Topsentiasterol sulfate E] registered a concentration for a half-maximal effect (EC50) of 12 µM. This counts as double-digit micromolar.

In turn, `C=C(C)C(CC[C@@H](C)[C@H]1CC[C@@]2(C)[C@@H]3C[C@H](OS(=O)(=O)O)[C@H]4[C@@H](O)[C@H](OS(=O)(=O)O)[C@@H](OS(=O)(=O)O)C[C@]4(C)C3=CC[C@]12C)C(C)C` (some centres undefined) [Spheciosterol sulfate B] registered a concentration giving a half-maximal response (EC50) of 12 µM.

`C=C(C)C(C)(C)C(C)CC[C@@H](C)[C@H]1CC[C@@]2(C)[C@@H]3C[C@H](OS(=O)(=O)O)[C@H]4[C@@H](O)[C@H](OS(=O)(=O)O)[C@@H](OS(=O)(=O)O)C[C@]4(C)C3=CC[C@]12C` (some centres undefined) [Spheciosterol sulfate C] returned an EC50 of 12 µM.

The compound `C=C(C)C(CC)CC[C@@H](C)[C@H]1CC[C@@]2(C)[C@@H]3C[C@H](OS(=O)(=O)O)[C@H]4[C@@H](O)[C@H](OS(=O)(=O)O)[C@@H](OS(=O)(=O)O)C[C@]4(C)C3=CC[C@]12C` (some centres undefined) [Spheciosterol sulfate A] returned a concentration for a half-maximal effect (EC50) of 12 µM.
